Reference: ChEMBL document CHEMBL1138127, “Conversion of potent MMP inhibitors into selective TACE inhibitors” (Bioorg Med Chem Lett, 2006)

Assays:
Interstitial collagenase = biological target: T1, Interstitial collagenase (Homo sapiens, UniProt P03956); test: Binding affinity to MMP1
T1 sequence (P03956 whole entry): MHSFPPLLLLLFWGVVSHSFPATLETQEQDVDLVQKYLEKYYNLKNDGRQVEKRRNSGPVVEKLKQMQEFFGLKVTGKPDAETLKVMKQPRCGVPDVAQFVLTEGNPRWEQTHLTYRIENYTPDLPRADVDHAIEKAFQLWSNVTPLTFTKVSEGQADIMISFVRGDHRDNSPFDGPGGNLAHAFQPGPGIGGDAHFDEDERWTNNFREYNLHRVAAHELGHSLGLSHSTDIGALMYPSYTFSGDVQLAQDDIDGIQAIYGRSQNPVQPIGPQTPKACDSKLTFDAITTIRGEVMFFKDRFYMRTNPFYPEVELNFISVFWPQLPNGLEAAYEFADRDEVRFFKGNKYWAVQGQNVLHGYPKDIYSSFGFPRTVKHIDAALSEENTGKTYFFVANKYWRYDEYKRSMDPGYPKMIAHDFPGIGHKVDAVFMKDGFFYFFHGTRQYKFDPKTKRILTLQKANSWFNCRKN

Collagenase 3 = Collagenase 3 (Homo sapiens, UniProt P45452); test: Binding affinity to MMP13
[1] = biological target: Matrix metalloproteinase-9 (Homo sapiens, UniProt P14780); test: Binding affinity to MMP9
[2] = biological target: 72 kDa type IV collagenase (Homo sapiens, UniProt P08253); test: Binding affinity to MMP2
[3] = biological target: Disintegrin and metalloproteinase domain-containing protein 17 (Homo sapiens, UniProt P78536); test: Inhibitory activity against TACE
Sequence of Disintegrin and metalloproteinase domain-containing protein 17 (P78536 whole entry, the tested form may be a part): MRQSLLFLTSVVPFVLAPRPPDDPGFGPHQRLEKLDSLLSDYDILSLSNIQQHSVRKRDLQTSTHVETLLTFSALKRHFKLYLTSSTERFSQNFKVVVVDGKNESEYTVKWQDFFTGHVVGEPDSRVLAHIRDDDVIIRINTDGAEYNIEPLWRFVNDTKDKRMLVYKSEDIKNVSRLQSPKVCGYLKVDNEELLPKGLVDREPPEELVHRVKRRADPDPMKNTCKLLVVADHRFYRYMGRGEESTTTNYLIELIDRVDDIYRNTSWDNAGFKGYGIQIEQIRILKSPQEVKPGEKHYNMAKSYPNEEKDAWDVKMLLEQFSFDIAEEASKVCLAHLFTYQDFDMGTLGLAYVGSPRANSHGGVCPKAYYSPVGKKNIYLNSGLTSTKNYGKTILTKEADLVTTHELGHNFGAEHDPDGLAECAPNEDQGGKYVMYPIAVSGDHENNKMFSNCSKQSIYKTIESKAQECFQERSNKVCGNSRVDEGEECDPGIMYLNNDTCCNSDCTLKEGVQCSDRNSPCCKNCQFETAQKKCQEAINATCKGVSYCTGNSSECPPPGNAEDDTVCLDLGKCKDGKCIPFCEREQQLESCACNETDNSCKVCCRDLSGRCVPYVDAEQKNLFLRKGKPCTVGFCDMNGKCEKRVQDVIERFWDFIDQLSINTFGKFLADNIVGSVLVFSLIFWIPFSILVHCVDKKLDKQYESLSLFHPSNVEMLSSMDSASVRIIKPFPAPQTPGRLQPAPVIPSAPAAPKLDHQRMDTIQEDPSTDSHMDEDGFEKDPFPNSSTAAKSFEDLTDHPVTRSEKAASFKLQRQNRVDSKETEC

Sequence of Matrix metalloproteinase-9 (P14780 whole entry): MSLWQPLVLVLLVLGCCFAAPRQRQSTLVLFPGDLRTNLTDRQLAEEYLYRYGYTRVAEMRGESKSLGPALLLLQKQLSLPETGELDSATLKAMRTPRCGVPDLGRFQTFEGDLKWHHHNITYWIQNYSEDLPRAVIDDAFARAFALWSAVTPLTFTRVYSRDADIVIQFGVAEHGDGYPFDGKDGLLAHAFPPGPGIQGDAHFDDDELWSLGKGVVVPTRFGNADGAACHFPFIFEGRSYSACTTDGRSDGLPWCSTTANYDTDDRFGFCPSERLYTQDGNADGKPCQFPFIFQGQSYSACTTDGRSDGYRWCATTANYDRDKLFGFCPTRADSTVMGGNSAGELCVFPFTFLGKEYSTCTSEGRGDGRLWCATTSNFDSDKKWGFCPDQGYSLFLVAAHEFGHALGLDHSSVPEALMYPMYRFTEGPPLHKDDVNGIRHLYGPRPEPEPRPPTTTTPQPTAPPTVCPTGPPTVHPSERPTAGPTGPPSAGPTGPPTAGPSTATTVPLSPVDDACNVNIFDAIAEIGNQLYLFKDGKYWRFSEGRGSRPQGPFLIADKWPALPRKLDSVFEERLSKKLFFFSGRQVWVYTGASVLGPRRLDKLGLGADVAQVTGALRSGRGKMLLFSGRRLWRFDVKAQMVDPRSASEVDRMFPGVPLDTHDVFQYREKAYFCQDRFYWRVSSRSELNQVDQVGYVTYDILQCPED
Sequence of 72 kDa type IV collagenase (P08253 whole entry, the tested form may be a part): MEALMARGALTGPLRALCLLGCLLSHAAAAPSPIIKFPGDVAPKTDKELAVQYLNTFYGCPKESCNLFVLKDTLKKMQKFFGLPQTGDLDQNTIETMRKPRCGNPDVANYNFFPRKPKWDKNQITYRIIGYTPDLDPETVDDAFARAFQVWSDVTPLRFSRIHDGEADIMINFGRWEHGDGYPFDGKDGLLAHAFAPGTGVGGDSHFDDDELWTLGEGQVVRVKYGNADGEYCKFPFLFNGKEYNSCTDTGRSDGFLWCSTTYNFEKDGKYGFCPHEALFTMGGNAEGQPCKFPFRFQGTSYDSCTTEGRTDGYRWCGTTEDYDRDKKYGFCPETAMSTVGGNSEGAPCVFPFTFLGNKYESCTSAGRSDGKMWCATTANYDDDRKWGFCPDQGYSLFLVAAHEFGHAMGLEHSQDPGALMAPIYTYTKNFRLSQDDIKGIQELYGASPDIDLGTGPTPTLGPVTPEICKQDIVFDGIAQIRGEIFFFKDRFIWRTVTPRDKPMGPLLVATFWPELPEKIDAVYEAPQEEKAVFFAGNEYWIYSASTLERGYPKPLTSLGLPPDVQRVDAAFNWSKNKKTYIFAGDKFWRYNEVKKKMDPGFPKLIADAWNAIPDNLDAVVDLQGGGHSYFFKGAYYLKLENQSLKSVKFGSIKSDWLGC

SMILES	Ki (Interstitial collagenase) [nM]	Ki (Collagenase 3) [nM]	Ki [1] [nM]	Ki [2] [nM]	IC50 [3] [nM]
Cc1cc(COc2ccc(N3C(C(=O)NO)CNS3(=O)=O)cc2)c2ccccc2n1 (configuration not stated)	> 4950	> 5030	> 2130	> 3330	8.3
Cc1cc(COc2ccc(CC3C(C(=O)NO)CCS3(=O)=O)cc2)c2ccccc2n1 (configuration not stated)	> 4950	> 5030	> 2130	> 3330	150
COc1ccc(-c2ccc(CN3C(C(=O)NO)CCS3(=O)=O)cc2)cc1 (configuration not stated)	> 4950				> 1000
Cc1cc(COc2ccc(N3C(C(=O)NO)CCCS3(=O)=O)cc2)c2ccccc2n1 (configuration not stated)	> 4950	> 5030	> 2130	> 3330	3.7
Cc1cc(COc2ccc(CCN3C(C(=O)NO)CCS3(=O)=O)cc2)c2ccccc2n1 (configuration not stated)	> 4950	> 5030	> 2130	> 3330	480
Cc1cc(COc2ccc(N3C(C(=O)NO)CCS3(=O)=O)cc2)c2ccccc2n1 (configuration not stated)	> 4950	> 5030	> 2130	> 3330	5.9
Cc1cc(COc2ccc(CN3C(C(=O)NO)CCS3(=O)=O)cc2)c2ccccc2n1 (configuration not stated)	> 4950	> 5030	> 2130	> 3330	900
